# Source: US8415393B2, “Anti-bacterial drug targeting of genome maintenance interfaces” (Wisconsin Alumni Research Foundation, priority 2007, dated 2013)
# “Also recorded” adds a separate entry of the source. Read-outs that look alike come from different tables or passages of the source. Where no end group is shown, it is not given here. fluorescein = fluorescein moiety attached to the N-terminus of the peptide (N-terminal fluorescein label)
# T1: fluorescein-labeled SSB C-terminal peptide, fluorescein-WMDFDDDIPF (E. coli)
# T1 construct: also called F-WT; F-SSB-Ct
# T1 peptide: fluorescein-WMDFDDDIPF
# Experiments:
# [1] = tested on: HT-29 (human colorectal adenocarcinoma) cells; assay: Mammalian cell toxicity, CellTiter-Glo cell viability assay; assay type: cell-based
# Experimental: The toxicity of the identified antimicrobial candidate compounds was tested using human colorectal adenocarcinoma cells in vitro. […] The mammalian cells were tested using a CellTiter-Glo cell viability assay (Promega, Madison, Wis.).
# [2] = target: Exonuclease I/SSB-Ct complex (Escherichia coli, UniProt P04995); assay: Fluorescence polarization competition: inhibition of fluorescein-SSB C-terminal peptide binding to Exonuclease I (HTS and Ki determination); settings: for peptide binding inhibition: ExoI/SSB-Ct peptide
# Sequence of Exonuclease I/SSB-Ct complex (P04995 whole entry, one chain of several): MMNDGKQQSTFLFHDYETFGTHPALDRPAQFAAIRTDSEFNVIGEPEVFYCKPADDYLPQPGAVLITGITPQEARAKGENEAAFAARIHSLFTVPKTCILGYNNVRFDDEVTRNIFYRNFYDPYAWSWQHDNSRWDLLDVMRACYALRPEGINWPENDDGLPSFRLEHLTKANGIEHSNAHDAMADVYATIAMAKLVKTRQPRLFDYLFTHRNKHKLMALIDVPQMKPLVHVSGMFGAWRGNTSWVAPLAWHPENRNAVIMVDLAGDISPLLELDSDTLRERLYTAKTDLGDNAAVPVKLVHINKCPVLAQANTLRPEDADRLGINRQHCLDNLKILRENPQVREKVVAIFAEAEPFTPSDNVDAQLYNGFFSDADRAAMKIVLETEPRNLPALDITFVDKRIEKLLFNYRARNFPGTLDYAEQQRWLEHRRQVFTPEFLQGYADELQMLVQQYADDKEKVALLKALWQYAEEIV
# Experimental: Peptide binding assays were performed in solution, using the peptides from above, and Exonuclease I, in the absence or presence of various compounds. Different amounts of Exonuclease I (ExoI) were used in the peptide binding assays. […] Fluorescence polarization (FP) was measured at 25° C. in triplicate; the average FP value was plotted with standard deviation of the mean shown as error.
# Concentrated Exonuclease I was dialyzed overnight into 2 liters dilution buffer (DB) (20 mM Tris pH 8.0 HCl, 100 mM NaCl, 1 mM MgCl2, and 1 mM Beta-Mercaptoethanol). […] After sitting at room temperature for 5 min, a liquid handling system was used to aliquot this solution into 384 well plates providing 30 microliters/well. One microliter of 1 mM compound was then added. The screened compounds were obtained from the ChemBridge DIVERSet library (ChemBridge Corporation, San Diego, Calif.), from the Maybridge HitFinder library (Thermo Fisher Scientific, Waltham, Mass.), from the ChemDiv library (Chemical Diversity Labs, San Diego, Calif.), or from the Known Bioactive Library—KBA01.
# The FP (fluorescence polarization) values for each well were read using a (plate reader) 5 minutes after compound addition.
# Increasing amounts of compound were titrated into peptide protein mixture until FP values were lowered to values given by only fluorescently labeled peptide alone. Ki values were determined using the Ki calculator for fluorescence-based competitive binding assays of Prof. Shaomeng Wang, University of Michigan (Nikolovska-Coleska et al., 2004, Anal. Biochem. 332: 261-273).
# [3] = tested on: red blood cells; assay: In vitro hemolysis; assay type: cell-based; settings: for % hemolysis at given concentration: 1 hour; for Hemolysis: Table 3, minimum concentration necessary to lyse red blood cells
# Experimental: The identified small molecules were incubated with red blood cells to see what percentage of cells would lyse after 1 hour. Estimated hemolysis data are due to problem with reading absorbance, when the compound absorbs at the same wavelength as heme or if the compound precipitates. In such instances it is difficult to quantitate the absorbance readings; however, visual determination of how many cells have lysed can then be performed, which provides an estimate of cell lysis.
# [4] = tested on: E. coli 4213 (imp4213, compromised cell wall); assay: microbe, parasite or virus in culture; assay type: cell-based; settings: Escherichia coli
# Experimental: The compromised cell wall allows the chemicals to pass through it more readily.
# (§1) 100 μL of LB containing E. coli 1655, E. coli 4213, or S. aureus at A ˜0.05 OD 600 was aliquoted in 96 well plates. One μL of compound in DMSO was added to final concentrations given. Plates were incubated at 37° C. with shaking at 250 RPM. Rate of growth was calculated by determining the average change in OD/hour that took place between hours 3 and 7 (log growth phase). The graphs shown herein are plots of this bacterial growth rate (change in OD/h) against inhibitor concentration in μM.
# [5] = tested on: Staphylococcus aureus 12598; assay: Bacterial growth assay in LB liquid media, S. aureus; assay type: cell-based
# Experimental: as §1
# [6] = target: T1, fluorescein-labeled SSB C-terminal …; assay: equilibrium fluorescence anisotropy
# [7] = HT-29 cells, CellTiter-Glo, read-out: IC50
# [8] = read-out: IC50 μM inhibitor, inhibition of E. coli growth
# [9] = read-out: IC(50) E. coli imp4213
# [10] = Staphylococcus aureus, 12598, Table 3, reduce growth 50% in liquid media, unit not given (Table 5 gives μM), read-out: IC(50) S. aureus
# [11] = Staphylococcus aureus, 12598, Table 5, read-out: IC50 μM inhibitor, inhibition of S. aureus growth
molecule,measurement,setting,value
"CC1=NN(c2nc3ccc(Cl)cc3s2)C(=O)C1 [Compound 46, 1-(6-chloro-1,3-benzothiazol-2-yl)-3-methyl-4,5-dihydro-1H-pyrazol-5-one]",IC50,[1]; [7],55 µM
same,Ki,[2],1.5 µM
same,Ki,"[2]; Ki estimates, Table 2",1.5 µM
same,% hemolysis at given concentration,[3]; >800 μM,0% >800
same,Hemolysis,[3],>800 µM
"CC1=NN(c2nc3ccccc3s2)C(=O)C1 [Compound 31, 2-(1,3-benzothiazol-2-yl)-5-methyl-2,4-dihydro-3H-pyrazol-3-one]",IC50,[4]; [8],50 to 100 µM
same,IC50,[4]; [9],50 to 100 µM
same,peptide binding inhibition,[2],much weaker binding; also recorded: did not inhibit binding
same,% hemolysis at given concentration,[3]; >800 μM,0% >800
same,Hemolysis,[3],>800 µM
"Cc1nn(-c2nc3ccccc3s2)c(O)c1C [Compound 28, 1-(1,3-benzothiazol-2-yl)-3,4-dimethyl-1H-pyrazol-5-ol]",IC50,[4]; [8],38 µM
same,IC50,[4]; [9],38 µM
same,IC50,[1]; HT-29,> 100 µM
same,peptide binding inhibition,[2],did not inhibit binding
same,% hemolysis at given concentration,[3]; >800 μM,0% >800
same,Hemolysis,[3],>800 µM
"O=C(O)c1ccccc1Nc1cccc(C(F)(F)F)c1 [Compound 32, 2-[3-(trifluoromethyl)anilino]benzoic acid]",IC50,[4]; [8],33 µM
same,IC50,[4]; [9],33 µM
same,IC50,[1]; [7],> 100 µM
same,IC50,[5]; [10],30 µM
same,IC50,[5]; [11],30 µM
same,Ki,[2],1.5 µM
same,Ki,"[2]; Ki estimates, Table 2",1.5 µM
same,% hemolysis at given concentration,[3]; >800 μM,0% >800
same,Hemolysis,[3],>800 µM
"CC(C)c1cc(O)n(-c2nc3ccccc3s2)n1 [Compound 29, 1-(1,3-benzothiazol-2-yl)-3-isopropyl-1H-pyrazol-5-ol]",IC50,[4]; [8],88 µM
same,IC50,[4]; [9],88 µM
same,IC50,[1]; HT-29,> 100 µM
same,peptide binding inhibition,[2],did not inhibit binding
same,% hemolysis at given concentration,[3]; >800 μM,0% >800
same,Hemolysis,[3],>800 µM
"Cc1noc(C)c1C(=O)Nc1nc2ccc(Cl)cc2s1 [Compound 42, N-(6-chloro-1,3-benzothiazol-2-yl)-3,5-dimethyl-4-isoxazolecarboxamide]",IC50,[1]; [7],51 µM
same,IC50,[5]; [10],9 µM
same,IC50,[5]; [11],9 µM
same,% hemolysis at given concentration,[3]; >800 μM,0% >800
same,Hemolysis,[3],>800 µM
"O=[N+]([O-])c1ccc(Oc2cc(C(F)(F)F)ccc2Cl)cc1O [Compound 37, 5-[2-chloro-5-(trifluoromethyl)phenoxy]-2-nitrophenol]",IC50,[4]; [8],33 µM
same,IC50,[4]; [9],33 µM
same,IC50,[1]; HT-29,> 100 µM
same,IC50,"[5]; Staphylococcus aureus, 12598, read-out: IC50 μM inhibitor, inhibition of S. aureus growth",2.5 µM
same,IC50,"[5]; Staphylococcus aureus, 12598, read-out: IC(50) S. aureus",2.5 µM
same,Ki,[2],0.7 µM
same,Ki,"[2]; Ki estimates, Table 2",0.7 µM
same,% hemolysis at given concentration,[3]; 800 μM,estimated 0% 800
same,Hemolysis,[3],>800 µM
"ExoI Arg148 Ala variant (enzyme, peptide-A-site variant; also called R148A; Arg148 variant) MMNDGKQQSTFLFHDYETFGTHPALDRPAQFAAIRTDSEFNVIGEPEVFYCKPADDYLPQPGAVLITGITPQEARAKGENEAAFAARIHSLFTVPKTCILGYNNVRFDDEVTRNIFYRNFYDPYAWSWQHDNSRWDLLDVMRACYALAPEGINWPENDDGLPSFRLEHLTKANGIEHSNAHDAMADVYATIAMAKLVKTRQPRLFDYLFTHRNKHKLMALIDVPQMKPLVHVSGMFGAWRGNTSWVAPLAWHPENRNAVIMVDLAGDISPLLELDSDTLRERLYTAKTDLGDNAAVPVKLVHINKCPVLAQANTLRPEDADRLGINRQHCLDNLKILRENPQVREKVVAIFAEAEPFTPSDNVDAQLYNGFFSDADRAAMKIVLETEPRNLPALDITFVDKRIEKLLFNYRARNFPGTLDYAEQQRWLEHRRQVFTPEFLQGYADELQMLVQQYADDKEKVALLKALWQYAEEIV",fold weaker binding than wild-type ExoI,[6],10 to 100 fold
"ExoI Gln311 Ala variant (enzyme, peptide-A-site variant; also called Q311A; Gln311 variant) MMNDGKQQSTFLFHDYETFGTHPALDRPAQFAAIRTDSEFNVIGEPEVFYCKPADDYLPQPGAVLITGITPQEARAKGENEAAFAARIHSLFTVPKTCILGYNNVRFDDEVTRNIFYRNFYDPYAWSWQHDNSRWDLLDVMRACYALRPEGINWPENDDGLPSFRLEHLTKANGIEHSNAHDAMADVYATIAMAKLVKTRQPRLFDYLFTHRNKHKLMALIDVPQMKPLVHVSGMFGAWRGNTSWVAPLAWHPENRNAVIMVDLAGDISPLLELDSDTLRERLYTAKTDLGDNAAVPVKLVHINKCPVLAAANTLRPEDADRLGINRQHCLDNLKILRENPQVREKVVAIFAEAEPFTPSDNVDAQLYNGFFSDADRAAMKIVLETEPRNLPALDITFVDKRIEKLLFNYRARNFPGTLDYAEQQRWLEHRRQVFTPEFLQGYADELQMLVQQYADDKEKVALLKALWQYAEEIV",fold binding defect relative to wild-type ExoI,[6],2 fold
"ExoI Arg338 Ala variant (enzyme, basic ridge variant; also called R338A; Arg338 variant) MMNDGKQQSTFLFHDYETFGTHPALDRPAQFAAIRTDSEFNVIGEPEVFYCKPADDYLPQPGAVLITGITPQEARAKGENEAAFAARIHSLFTVPKTCILGYNNVRFDDEVTRNIFYRNFYDPYAWSWQHDNSRWDLLDVMRACYALRPEGINWPENDDGLPSFRLEHLTKANGIEHSNAHDAMADVYATIAMAKLVKTRQPRLFDYLFTHRNKHKLMALIDVPQMKPLVHVSGMFGAWRGNTSWVAPLAWHPENRNAVIMVDLAGDISPLLELDSDTLRERLYTAKTDLGDNAAVPVKLVHINKCPVLAQANTLRPEDADRLGINRQHCLDNLKILAENPQVREKVVAIFAEAEPFTPSDNVDAQLYNGFFSDADRAAMKIVLETEPRNLPALDITFVDKRIEKLLFNYRARNFPGTLDYAEQQRWLEHRRQVFTPEFLQGYADELQMLVQQYADDKEKVALLKALWQYAEEIV",fold binding defect,[6],3 fold
"ExoI Arg316 Ala variant (enzyme, peptide-A-site variant; also called R316A; Arg316 variant) MMNDGKQQSTFLFHDYETFGTHPALDRPAQFAAIRTDSEFNVIGEPEVFYCKPADDYLPQPGAVLITGITPQEARAKGENEAAFAARIHSLFTVPKTCILGYNNVRFDDEVTRNIFYRNFYDPYAWSWQHDNSRWDLLDVMRACYALRPEGINWPENDDGLPSFRLEHLTKANGIEHSNAHDAMADVYATIAMAKLVKTRQPRLFDYLFTHRNKHKLMALIDVPQMKPLVHVSGMFGAWRGNTSWVAPLAWHPENRNAVIMVDLAGDISPLLELDSDTLRERLYTAKTDLGDNAAVPVKLVHINKCPVLAQANTLAPEDADRLGINRQHCLDNLKILRENPQVREKVVAIFAEAEPFTPSDNVDAQLYNGFFSDADRAAMKIVLETEPRNLPALDITFVDKRIEKLLFNYRARNFPGTLDYAEQQRWLEHRRQVFTPEFLQGYADELQMLVQQYADDKEKVALLKALWQYAEEIV",fold weaker binding than wild-type ExoI,[6],10 to 100 fold
"ExoI Asp319 Ala variant (enzyme, also called D319A; Asp319 variant) MMNDGKQQSTFLFHDYETFGTHPALDRPAQFAAIRTDSEFNVIGEPEVFYCKPADDYLPQPGAVLITGITPQEARAKGENEAAFAARIHSLFTVPKTCILGYNNVRFDDEVTRNIFYRNFYDPYAWSWQHDNSRWDLLDVMRACYALRPEGINWPENDDGLPSFRLEHLTKANGIEHSNAHDAMADVYATIAMAKLVKTRQPRLFDYLFTHRNKHKLMALIDVPQMKPLVHVSGMFGAWRGNTSWVAPLAWHPENRNAVIMVDLAGDISPLLELDSDTLRERLYTAKTDLGDNAAVPVKLVHINKCPVLAQANTLRPEAADRLGINRQHCLDNLKILRENPQVREKVVAIFAEAEPFTPSDNVDAQLYNGFFSDADRAAMKIVLETEPRNLPALDITFVDKRIEKLLFNYRARNFPGTLDYAEQQRWLEHRRQVFTPEFLQGYADELQMLVQQYADDKEKVALLKALWQYAEEIV",fold binding defect,[6],2 fold
